Measured values taken from the supplement of paper PMC12370961.

Columns and labels:
Experiment in all cases: differential drug sensitivity score (dDSS) relative to sarcoma reference cohort mean DSS (DSS units (0-100 scale difference)); higher = more selective sensitivity than reference sarcomas
Conditions in all cases: exposure time: 72 h; concentration range: 10-10000 nM
CDS-ZH002 direct = test system: CDS-ZH002 direct (CIC-DUX4 sarcoma cells right after isolation)
Description: (§1)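 Drug response profiling of patient-derived Ewing sarcoma and CIC::DUX4 sarcoma tumoroid models (or cells tested directly after isolation from the tumor, 'direct'). The DSS is the normalised AUC (0-100); dDSS is the sample DSS minus the mean DSS of a 34-sarcoma reference cohort profiled in the same lab.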

ES-ZH007 = test system: ES-ZH007 (patient-derived Ewing sarcoma tumoroid)
Description: as §1

CDS-ZH002 = test system: CDS-ZH002 (patient-derived CIC-DUX4 sarcoma tumoroid)
Description: as §1

CDS-ZH003 = test system: CDS-ZH003 (patient-derived CIC-DUX4 sarcoma tumoroid)
Description: as §1

ES-ZH008 = test system: ES-ZH008 (patient-derived Ewing sarcoma tumoroid)
Description: as §1

CDS-ZH001 = test system: CDS-ZH001 (patient-derived CIC-DUX4 sarcoma tumoroid)
Description: as §1

ES-ZH002 = test system: ES-ZH002 (patient-derived Ewing sarcoma tumoroid)
Description: as §1

CDS-ZH001-2 = test system: CDS-ZH001-2 (patient-derived CIC-DUX4 sarcoma tumoroid)
Description: as §1

ES-ZH004 = test system: ES-ZH004 (patient-derived Ewing sarcoma tumoroid)
Description: as §1

ES-ZH016 = test system: ES-ZH016 (patient-derived Ewing sarcoma tumoroid)
Description: as §1

ES-ZH016 direct = test system: ES-ZH016 direct (Ewing sarcoma cells right after isolation)
Description: as §1

ES-ZH001 = test system: ES-ZH001 (patient-derived Ewing sarcoma tumoroid)
Description: as §1

ES-ZH009 = test system: ES-ZH009 (patient-derived Ewing sarcoma tumoroid)
Description: as §1

SMILES | differential drug sensitivity score (CDS-ZH002 direct) | differential drug sensitivity score (ES-ZH007) | differential drug sensitivity score (CDS-ZH002) | differential drug sensitivity score (CDS-ZH003) | differential drug sensitivity score (ES-ZH008) | differential drug sensitivity score (CDS-ZH001) | differential drug sensitivity score (ES-ZH002) | differential drug sensitivity score (CDS-ZH001-2) | differential drug sensitivity score (ES-ZH004) | differential drug sensitivity score (ES-ZH016) | differential drug sensitivity score (ES-ZH016 direct) | differential drug sensitivity score (ES-ZH001) | differential drug sensitivity score (ES-ZH009)
CN(C)C/C=C/C(=O)Nc1ccc(C(=O)Nc2cccc(Nc3ncc(Cl)c(-c4c[nH]c5ccccc45)n3)c2)cc1 [THZ1] | 9.2 | 0.1 | 0.9 | -8.9 | 8.6 | 0 | 4.3 | 6.7 | 11.4 | 10.2 | 9 | 4.2 | 7.4
Cn1ncnc1[C@H]1c2n[nH]c(=O)c3cc(F)cc(c23)N[C@@H]1c1ccc(F)cc1 [Talazoparib] | -2.2 | 25.9 | -5.9 | 0.3 | 24.9 | -1.8 | 28.8 | 8.2 | 21.6 | 24.4 | 18.1 | 26.5 | 11.3
CCN(c1cc(-c2ccc(CN3CCOCC3)cc2)cc(C(=O)NCc2c(C)cc(C)[nH]c2=O)c1C)C1CCOCC1 [Tazemetostat] | -1.1 | -1.1 | -0.9 | -7 | -1.1 | -0.8 | -1.1 | -1.1 | -1.1 | -0.7 | -1.1 | -1.1 | 1
Cn1nnc2c(C(N)=O)ncn2c1=O [Temozolomide] | 1.1 | -1.3 | 1.4 | 7.1 | -1.3 | 3.6 | 2.1 | 3.5 | -1.7 | 13.8 | 14.8 | 3.2 | 7
CO[C@H]1C[C@@H]2CC[C@@H](C)[C@@](O)(O2)C(=O)C(=O)N2CCCC[C@H]2C(=O)O[C@H]([C@H](C)C[C@@H]2CC[C@@H](OC(=O)C(C)(CO)CO)[C@H](OC)C2)CC(=O)[C@H](C)/C=C(\C)[C@@H](O)[C@@H](OC)C(=O)[C@H](C)C[C@H](C)/C=C/C=C/C=C/1C [Temsirolimus] | 4.8 | 5.9 | -7 | 2.1 | 3.1 | 0.8 | 15.8 | 4 | 8.3 | -3 | -6.2 | 6.2 | 11.1
CN1CCC(COc2cnc(-c3cccc(Cn4nc(-c5cccc(C#N)c5)ccc4=O)c3)nc2)CC1 [Tepotinib] | 2.3 | -0.6 | -5.4 | 3.5 | -4.7 | -1.4 | 0.6 | -2.5 | -4.7 | -4.3 | -4.5 | 4.4 | 9
Nc1nc2[nH]cnc2c(=S)[nH]1 [Thioguanine] | 2.5 | 1.2 | 0.2 | -4.2 | 10.4 | 1 | 17.1 | 5.1 | 12.4 | -4.8 | 3.7 | 15.5 | 9.6
S=P(N1CC1)(N1CC1)N1CC1 [Thiotepa] | -4.2 | 3.1 | -3.1 | 9.4 | 8.7 | 4.6 | 11.2 | 0.2 | 5.2 | 9.2 | 17 | 7 | -1.4
O=C(Cc1ccc(-c2ccc(OCCN3CCOCC3)cc2)cn1)NCc1ccccc1 [Tirbanibulin] | 1.7 | 4.5 | 4 | -7.7 | 6.4 | 8.2 | 13.5 | 1.4 | 5.9 | 11.4 | 7.2 | 9.3 | 10.5
O=C1NC(=O)[C@@H](c2cn3c4c(cccc24)CCC3)[C@@H]1c1c[nH]c2ccccc12 [Tivantinib] | -1.2 | 2.7 | -3.1 | -3.8 | -1.9 | 2.5 | 9.4 | -0.2 | 1 | 7.4 | 2.2 | 9.4 | 7.7
C[C@@H]1CCN(C(=O)CC#N)C[C@@H]1N(C)c1ncnc2[nH]ccc12 [Tofacitinib] | 0.3 | -1 | -1.3 | -3.7 | 4.8 | -1.3 | 6.4 | -1.3 | 0.8 | -1.3 | -1.3 | 5.4 | -0.3
CC[C@@]1(O)C(=O)OCc2c1cc1n(c2=O)Cc2cc3c(CN(C)C)c(O)ccc3nc2-1 [Topotecan] | -4.9 | 19.4 | -2.7 | 8 | 10.8 | 5.3 | 20.1 | 3.4 | 16.4 | 19.6 | 7.3 | 19.4 | 15.8
CCC(=O)N1CCN(c2ccc(-n3c(=O)ccc4cnc5ccc(-c6cnc7ccccc7c6)cc5c43)cc2C(F)(F)F)CC1 [Torin-1] | -8.4 | -0.5 | -4 | 4.4 | 0.8 | 4.9 | 6.9 | 1.9 | -2.7 | -1.2 | -6.9 | -3.5 | 6.3
CC(C)n1nc(-c2cc3cc(O)ccc3[nH]2)c2c(N)ncnc21 [Torkinib] | -0.9 | 1.1 | -1.3 | -3.5 | 8.1 | 4.4 | 13.7 | 2.3 | 5.2 | 2.2 | -1.3 | 2.1 | 2
